From patent US8969362B2 (priority 2004, dated 2015) come the findings set out here.

In one series the test system is rat spleen cells. Briefly: cells. Particulars: 24 h, read-out: Minimum effective concentration (interferon inducing activity). The series is classed as cell-based.
Series [1] can be described thus: Metabolic stability test on rat liver S9. The series is classed as in vitro ADME. Particulars: rat liver S9 with NADPH, 1 μM test compound, 37° C.; residual rate after reaction. On the procedure: The reaction using liver S9 of rat was conducted on a 96-well plate by using a screening robot by Tecan Company. S9 solution was prepared by adding 250 mM Kpi (ph 7.4) 20 ml and deionized water 20 ml to 10 ml of liver S9 of rat, a Cofactor solution was prepared by dissolving NADPH 220 mg in deionized water 40.5 ml (Final 6 mM), and IS (Internal Standard) solution was prepared by adding IS solution (1 mM DMSO solution) 300 μl to acetonitrile 30 ml (100 times dilution). The test compound (1 μM DMSO solution) was dissolved in an incubator at 37° C. After each 35 μL was poured in a 96-well plate (24 samples/plate), plates (sample plates, 96-well plates for dilution, each Deep well plates for the reaction and the recovery, plates for extraction of a solid phase) and reagents (S9 solution, Cofactor solution, IS (Internal Standard) solution, Stop solution, acetonitrile for elution) were set to the specified position in the booth of the robot and the reaction started (the concentration of the test compounds was 1 μM). Incubation was conducted under shaking at 37° C., the solid phase was extracted (at the same time, the internal standard for analysis was added). To the recovered samples 200 μL/well was added 50 μL of acetonitrile per each well, and to 2 plates of FALCON Deep well were poured 100 μL/well of the solution per well. By subjecting to the LC/MS analysis, the chromatography of the test compound and the internal standard were described and the peak area was calculated. And then, the stability (residual rate after reaction) was calculated.

The nature of series [2]: Metabolic stability test using human plasma. Type of series: in vitro ADME. The conditions noted are these: 1 μM test compound, 37° C., 15 minutes, pre-metabolization concentration as 100%. On the procedure:
Plasma was prepared from fresh human blood and the test compound (containing 1% DMSO) of the final concentration of 1 μM was added thereto.
After a metabolic reaction by plasma esterase was conducted at 37° C. for 15 minutes, the test compound was extracted with ethyl acetate, and quantitatively analyzed by reverse phase HPLC. The metabolic stability of the test compound was shown by the residual amount (%) per the concentration of pre-metabolization as 100%.

As to `CCCCOc1nc(N)c2[nH]c(=O)n(CCOc3ccc(CC(=O)OC)cc3)c2n1` [Example 6, 2-butoxy-8-oxo-9-[2-(4-methoxycarbonylmethylphenoxy)ethyl]adenine], the minimal effective concentration in the series on rat spleen cells turned out to be 0.01 µM. The compound further had a Residual rate in series [1] of 0%.
On to `CCCCOc1nc(N)c2[nH]c(=O)n(CCOc3cccc(CC(=O)O)c3)c2n1` [Comparison Example 2, 2-butoxy-8-oxo-9-[2-(3-hydroxycarbonylmethylphenoxy)ethyl]adenine, reference compound], for which the minimal effective concentration with rat spleen cells was 0.03 µM.
For `CCCCOc1nc(N)c2[nH]c(=O)n(CCCCNS(=O)(=O)c3cccc(CC(=O)OC)c3)c2n1` [Example 9, 2-butoxy-8-oxo-9-[4-(3-methoxycarbonylmethylbenzenesulfonamide)butyl]adenine], the minimal effective concentration in the series with rat spleen cells is 0.003 µM. Also, the Residual rate is listed as <1.0% in series [2] and 0% in series [1].
With `CCCCOc1nc(N)c2[nH]c(=O)n(CCOc3ccccc3C(=O)OC)c2n1` [Example 3, 2-butoxy-8-oxo-9-[2-(2-methoxycarbonylphenoxy)ethyl]adenine], the minimal effective concentration with rat spleen cells worked out at 0.001 µM. Moreover, the Residual rate in series [1] stood at 0%.
Take `CCCCOc1nc(N)c2[nH]c(=O)n(CCCCNC(=O)Nc3cccc(CC(=O)O)c3)c2n1` [Comparison Example 11, 2-butoxy-8-oxo-9-[4-(3-hydroxycarbonylmethylphenylaminocarbonylamino)butyl]adenine, reference compound]: the minimal effective concentration in the series with rat spleen cells was found to be 0.1 µM.
On the same count and under the same terms, in the case of `CCCCOc1nc(N)c2[nH]c(=O)n(CCOc3cccc(C(=O)O)c3)c2n1` [Comparison Example 1, 2-butoxy-8-oxo-9-[2-(3-hydroxycarbonylphenoxy)ethyl]adenine, reference compound] it was 0.01 µM.
Take `CCCCOc1nc(N)c2[nH]c(=O)n(CCOc3ccc(C(=O)OC)cc3)c2n1` [Example 5, 2-butoxy-8-oxo-9-[2-(4-methoxycarbonylphenoxy)ethyl]adenine]: the Residual rate in series [1] is 0%.
`CCCCOc1nc(N)c2[nH]c(=O)n(CCOc3ccccc3C(=O)O)c2n1` [Comparison Example 3, 2-butoxy-8-oxo-9-[2-(2-hydroxycarbonylphenoxy)ethyl]adenine, reference compound]: the minimal effective concentration in the series with rat spleen cells was determined as 0.1 µM.
For `CCCCOc1nc(N)c2[nH]c(=O)n(CCCCNC(=O)Nc3cccc(C(=O)O)c3)c2n1` [Comparison Example 10, 2-butoxy-8-oxo-9-[4-(3-hydroxycarbonylphenylaminocarbonylamino)butyl]adenine, reference compound], the minimal effective concentration with rat spleen cells turned out to be 0.3 µM.
Consider `CCCCOc1nc(N)c2[nH]c(=O)n(CCOc3ccccc3CC(=O)OC)c2n1` [Example 4, 2-butoxy-8-oxo-9-[2-(2-methoxycarbonylmethylphenoxy)ethyl]adenine], for which the minimal effective concentration in the series on rat spleen cells is 0.001 µM. Further, in series [1], the Residual rate came to 0%.
With `CCCCOc1nc(N)c2nc(O)n(CCCCNS(=O)(=O)c3cccc(CC(=O)O)c3)c2n1` [Comparison Example 9, 2-butoxy-8-oxo-9-[4-(3-hydroxycarbonylmethylbenzenesulfonamide)butyl]adenine, reference compound], the minimal effective concentration in the series on rat spleen cells was 0.3 µM.
With `CCCCOc1nc(N)c2[nH]c(=O)n(CCOc3cccc(CC(=O)OC)c3)c2n1` [Example 2, 2-butoxy-8-oxo-9-[2-(3-methoxycarbonylmethylphenoxy)ethyl]adenine], the minimal effective concentration in the series with rat spleen cells turned out to be 0.003 µM. For the same compound, the Residual rate in series [2] was 1.4%; in series [1], 1%.
Take `CCCCOc1nc(N)c2[nH]c(=O)n(CCOc3ccccc3CC(=O)O)c2n1` [Comparison Example 4, 2-butoxy-8-oxo-9-[2-(2-hydroxycarbonylmethylphenoxy)ethyl]adenine, reference compound]: the minimal effective concentration with rat spleen cells was 0.1 µM.
For the compound `CCCCOc1nc(N)c2[nH]c(=O)n(CCOc3ccc(CCC(=O)OC)cc3)c2n1` [Example 7, 2-butoxy-8-oxo-9-{2-[4-(2-methoxycarbonylethyl)phenoxy]ethyl}adenine], in series [1], the Residual rate stood at 0%.
`CCCCOc1nc(N)c2[nH]c(=O)n(CCCCNS(=O)(=O)c3cccc(C(=O)OC)c3)c2n1` [Example 8, 2-butoxy-8-oxo-9-[4-(3-methoxycarbonylbenzenesulfonamide)butyl]adenine]: the minimal effective concentration in the series with rat spleen cells was determined as 0.003 µM. The compound also yielded a Residual rate in series [1] of 0%.
On to `CCCCOc1nc(N)c2[nH]c(=O)n(CCCCNC(=O)Nc3cccc(C(=O)OC)c3)c2n1` [Example 10, 2-butoxy-8-oxo-9-[4-(3-methoxycarbonylphenylaminocarbonylamino)butyl]adenine], for which, in the series on rat spleen cells, the minimal effective concentration stood at 0.001 µM. For the same compound, in series [1], the Residual rate is 1%.
In the same order, the values of `CCCCOc1nc(N)c2[nH]c(=O)n(CCOc3cccc(C(=O)OC)c3)c2n1` [Example 1, 2-butoxy-8-oxo-9-[2-(3-methoxycarbonylphenoxy)ethyl]adenine] are 0.0003 µM and 0%.
